The values that follow are results of earlier work, collected in US20070148194A1, “Novel nanoemulsion formulations” (priority 2005, published 2007).

Each structure is given as a SMILES string.

The subject of the series is HIV. To be noted: in vitro; read-out: anti-HIV activity in vitro, IC50.

Consider `CC(C)(C)NC(=O)[C@@H]1C[C@@H]2CCCC[C@@H]2CN1C[C@@H](O)[C@H](Cc1ccccc1)NC(=O)[C@H](CC(N)=O)NC(=O)c1ccc2ccccc2n1` [SQV, Saquinavir], for which the IC50 is 20 nM.

Broadly, the IC50 is the concentration that inhibits the measured activity by half.
